The numbers were not newly measured in patent US9655910B2, “Compositions and methods for treating addiction” (BODYBIO INC., priority 2014, dated 2017), which cites them from elsewhere.

The target of series [1] is CB1 cannabinoid receptor (Rattus norvegicus, UniProt P20272).
Series [2] has as its target CB2 receptor (Homo sapiens, UniProt P34972). To be noted: compared with CB1.
The subject of series [3] is mice.

CB2 receptor, sequence (P34972 whole entry): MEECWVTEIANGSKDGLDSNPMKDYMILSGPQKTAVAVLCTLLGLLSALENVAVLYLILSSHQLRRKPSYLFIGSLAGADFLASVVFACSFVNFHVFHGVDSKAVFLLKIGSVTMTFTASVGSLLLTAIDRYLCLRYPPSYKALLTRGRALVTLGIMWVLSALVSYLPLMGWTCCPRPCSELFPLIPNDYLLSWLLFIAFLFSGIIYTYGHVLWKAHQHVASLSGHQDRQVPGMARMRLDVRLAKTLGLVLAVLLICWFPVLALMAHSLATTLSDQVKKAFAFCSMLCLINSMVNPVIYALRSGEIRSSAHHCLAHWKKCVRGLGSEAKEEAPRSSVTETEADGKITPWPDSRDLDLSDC
CB1 cannabinoid receptor, sequence (P20272 whole entry): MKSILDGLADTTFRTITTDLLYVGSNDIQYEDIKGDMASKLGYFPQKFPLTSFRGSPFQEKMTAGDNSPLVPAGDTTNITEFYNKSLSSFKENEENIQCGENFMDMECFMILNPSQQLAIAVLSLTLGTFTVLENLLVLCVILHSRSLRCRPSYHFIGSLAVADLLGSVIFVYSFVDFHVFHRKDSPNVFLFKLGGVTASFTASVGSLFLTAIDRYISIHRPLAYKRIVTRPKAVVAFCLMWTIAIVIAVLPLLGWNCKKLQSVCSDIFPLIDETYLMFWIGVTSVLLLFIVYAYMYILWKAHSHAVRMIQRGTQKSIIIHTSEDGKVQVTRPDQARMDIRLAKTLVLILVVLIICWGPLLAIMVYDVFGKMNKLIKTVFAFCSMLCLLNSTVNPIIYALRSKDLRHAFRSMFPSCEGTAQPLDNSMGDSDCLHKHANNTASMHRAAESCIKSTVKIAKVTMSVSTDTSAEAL

Broadly, the Ki is the equilibrium dissociation constant of an inhibitor or competing ligand from its target. For `CCCCCC=CCC=CCC=CCC=CCCCCOC(CO)CO` [Noladin ether, 2-arachidonyl glyceryl ether], the Ki in series [1] was 21.2 nM. Further, the “binding to the CB2 receptor” value in series [2] is given as “only weakly”. Besides, the “effects caused in mice” value in series [3] is “sedation, hypothermia, intestinal immobility, and mild antinociception”.
